Here are results for four molecules from ChEMBL document CHEMBL3091325, “New aminopyrimidine derivatives as inhibitors of the TAM family” (Eur J Med Chem, 2013).

As a reminder, the inhibition is the relative decrease from the control value, in per cent.

In assay [1] the target is Tyrosine-protein kinase ABL1 (Homo sapiens) (UniProt P00519). The assay can be described thus: Inhibition of phosphorylated form of Abl1 (unknown origin) at 75 uM relative to control.
Assay [2] has as its target T1, Tyrosine-protein kinase receptor TYRO3 (Homo sapiens) (UniProt Q06418).
T1 sequence (whole entry): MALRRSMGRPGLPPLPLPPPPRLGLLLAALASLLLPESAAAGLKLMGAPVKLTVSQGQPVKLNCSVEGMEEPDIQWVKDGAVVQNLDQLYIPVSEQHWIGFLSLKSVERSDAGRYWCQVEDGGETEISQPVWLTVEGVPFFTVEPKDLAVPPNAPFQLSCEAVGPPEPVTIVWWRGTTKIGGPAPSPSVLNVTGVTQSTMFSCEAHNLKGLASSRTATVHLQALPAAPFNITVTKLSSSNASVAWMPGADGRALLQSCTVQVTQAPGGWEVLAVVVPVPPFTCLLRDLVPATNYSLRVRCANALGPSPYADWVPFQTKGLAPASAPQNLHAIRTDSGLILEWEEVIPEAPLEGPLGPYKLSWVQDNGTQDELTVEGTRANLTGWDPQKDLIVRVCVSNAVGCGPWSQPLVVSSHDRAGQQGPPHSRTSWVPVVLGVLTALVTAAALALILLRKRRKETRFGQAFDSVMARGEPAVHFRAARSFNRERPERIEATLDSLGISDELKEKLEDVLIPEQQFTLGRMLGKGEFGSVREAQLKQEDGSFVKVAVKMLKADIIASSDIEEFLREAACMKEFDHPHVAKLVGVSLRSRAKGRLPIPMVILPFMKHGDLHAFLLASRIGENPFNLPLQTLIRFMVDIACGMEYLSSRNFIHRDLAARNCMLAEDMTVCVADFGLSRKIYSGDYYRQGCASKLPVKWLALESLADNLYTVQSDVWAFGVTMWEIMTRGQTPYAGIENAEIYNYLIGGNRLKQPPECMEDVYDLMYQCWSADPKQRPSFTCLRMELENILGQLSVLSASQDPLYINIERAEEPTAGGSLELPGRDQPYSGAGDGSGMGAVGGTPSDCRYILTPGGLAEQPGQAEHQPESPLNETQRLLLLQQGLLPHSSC
The assay can be described thus: Inhibition of recombinant human Tyro3 kinase domain using poly (Glu, Ala, Tyr) as substrate at 1 uM after 1.5 hrs by ELISA relative to control. On the technique in general: ELISA stands for enzyme-linked immunosorbent assay.

In assay [3] the target is Tyrosine-protein kinase receptor UFO (Homo sapiens) (UniProt P30530). The assay can be described thus: Inhibition of Axl (unknown origin) at 1 uM relative to control.
Sequence of Tyrosine-protein kinase receptor UFO (Homo sapiens) (P30530 whole entry): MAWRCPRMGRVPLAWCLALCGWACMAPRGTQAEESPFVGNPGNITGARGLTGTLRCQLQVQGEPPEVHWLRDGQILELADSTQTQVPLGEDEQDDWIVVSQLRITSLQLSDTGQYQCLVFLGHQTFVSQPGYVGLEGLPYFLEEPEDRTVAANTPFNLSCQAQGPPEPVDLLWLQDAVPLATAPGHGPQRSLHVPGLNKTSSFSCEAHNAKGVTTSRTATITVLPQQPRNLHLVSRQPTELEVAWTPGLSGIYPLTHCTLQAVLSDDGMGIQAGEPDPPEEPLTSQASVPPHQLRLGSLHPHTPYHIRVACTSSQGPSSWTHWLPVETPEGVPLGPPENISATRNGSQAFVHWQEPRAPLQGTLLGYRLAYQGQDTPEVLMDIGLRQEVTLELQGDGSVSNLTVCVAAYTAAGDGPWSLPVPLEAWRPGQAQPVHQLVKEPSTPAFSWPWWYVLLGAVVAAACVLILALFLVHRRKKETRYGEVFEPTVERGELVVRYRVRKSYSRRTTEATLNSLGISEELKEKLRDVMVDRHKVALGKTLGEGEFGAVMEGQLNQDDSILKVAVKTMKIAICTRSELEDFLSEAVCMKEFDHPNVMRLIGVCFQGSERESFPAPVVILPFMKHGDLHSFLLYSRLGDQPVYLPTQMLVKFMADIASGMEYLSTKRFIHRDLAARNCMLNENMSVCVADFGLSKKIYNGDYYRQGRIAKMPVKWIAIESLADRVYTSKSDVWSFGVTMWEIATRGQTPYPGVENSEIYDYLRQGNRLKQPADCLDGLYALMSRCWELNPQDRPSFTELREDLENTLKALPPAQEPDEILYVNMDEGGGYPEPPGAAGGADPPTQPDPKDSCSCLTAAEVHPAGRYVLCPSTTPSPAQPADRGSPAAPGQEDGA
For assay [4] the target is unchanged. The assay can be described thus: Inhibition of Axl (unknown origin) at 75 uM relative to control.
Assay [5] addresses Tyrosine-protein kinase ABL1 (Homo sapiens) (UniProt P00519). The assay can be described thus: Inhibition of non-phosphorylated form of Abl1 (unknown origin) at 1 uM relative to control.
Assay [6] addresses T1, Tyrosine-protein kinase receptor TYRO3 (Homo sapiens). The assay can be described thus: Inhibition of recombinant human Tyro3 kinase domain using poly (Glu, Ala, Tyr) as substrate at 0.5 uM after 1.5 hrs by ELISA relative to control.
For assay [7], the target named is Fibroblast growth factor receptor 3 (Homo sapiens) (UniProt P22607). The assay can be described thus: Inhibition of FGFR3 (unknown origin) at 75 uM relative to control.
Sequence of Fibroblast growth factor receptor 3 (Homo sapiens) (P22607 23-806 limits assumed): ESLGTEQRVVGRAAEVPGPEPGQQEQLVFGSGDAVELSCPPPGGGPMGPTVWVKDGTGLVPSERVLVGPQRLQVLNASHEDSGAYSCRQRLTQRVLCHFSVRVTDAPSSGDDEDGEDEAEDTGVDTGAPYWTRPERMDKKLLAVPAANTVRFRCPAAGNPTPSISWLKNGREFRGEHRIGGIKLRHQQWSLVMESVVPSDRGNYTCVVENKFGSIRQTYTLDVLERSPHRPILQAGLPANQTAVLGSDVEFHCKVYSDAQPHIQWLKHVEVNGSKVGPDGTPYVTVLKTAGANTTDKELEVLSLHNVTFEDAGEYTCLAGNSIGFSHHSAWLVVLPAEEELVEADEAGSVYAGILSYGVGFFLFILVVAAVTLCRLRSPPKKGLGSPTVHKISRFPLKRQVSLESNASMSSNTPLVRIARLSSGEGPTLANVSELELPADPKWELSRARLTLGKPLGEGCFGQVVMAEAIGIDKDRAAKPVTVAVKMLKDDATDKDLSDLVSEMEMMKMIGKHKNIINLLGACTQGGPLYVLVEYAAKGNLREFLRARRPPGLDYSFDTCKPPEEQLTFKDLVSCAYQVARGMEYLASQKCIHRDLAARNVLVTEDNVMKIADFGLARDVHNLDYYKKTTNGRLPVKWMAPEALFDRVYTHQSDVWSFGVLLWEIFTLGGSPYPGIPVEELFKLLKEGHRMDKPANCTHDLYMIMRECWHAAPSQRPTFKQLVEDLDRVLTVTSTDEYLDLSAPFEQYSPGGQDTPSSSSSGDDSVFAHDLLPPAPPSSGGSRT
Assay [8] deals with T1, Tyrosine-protein kinase receptor TYRO3 (Homo sapiens). The assay can be described thus: Inhibition of recombinant human Tyro3 kinase domain using poly (Glu, Ala, Tyr) as substrate at 75 uM after 1.5 hrs by ELISA relative to control.
Assay [9] deals with T2, Tyrosine-protein kinase Mer (Homo sapiens) (UniProt Q12866).
T2 sequence (whole entry): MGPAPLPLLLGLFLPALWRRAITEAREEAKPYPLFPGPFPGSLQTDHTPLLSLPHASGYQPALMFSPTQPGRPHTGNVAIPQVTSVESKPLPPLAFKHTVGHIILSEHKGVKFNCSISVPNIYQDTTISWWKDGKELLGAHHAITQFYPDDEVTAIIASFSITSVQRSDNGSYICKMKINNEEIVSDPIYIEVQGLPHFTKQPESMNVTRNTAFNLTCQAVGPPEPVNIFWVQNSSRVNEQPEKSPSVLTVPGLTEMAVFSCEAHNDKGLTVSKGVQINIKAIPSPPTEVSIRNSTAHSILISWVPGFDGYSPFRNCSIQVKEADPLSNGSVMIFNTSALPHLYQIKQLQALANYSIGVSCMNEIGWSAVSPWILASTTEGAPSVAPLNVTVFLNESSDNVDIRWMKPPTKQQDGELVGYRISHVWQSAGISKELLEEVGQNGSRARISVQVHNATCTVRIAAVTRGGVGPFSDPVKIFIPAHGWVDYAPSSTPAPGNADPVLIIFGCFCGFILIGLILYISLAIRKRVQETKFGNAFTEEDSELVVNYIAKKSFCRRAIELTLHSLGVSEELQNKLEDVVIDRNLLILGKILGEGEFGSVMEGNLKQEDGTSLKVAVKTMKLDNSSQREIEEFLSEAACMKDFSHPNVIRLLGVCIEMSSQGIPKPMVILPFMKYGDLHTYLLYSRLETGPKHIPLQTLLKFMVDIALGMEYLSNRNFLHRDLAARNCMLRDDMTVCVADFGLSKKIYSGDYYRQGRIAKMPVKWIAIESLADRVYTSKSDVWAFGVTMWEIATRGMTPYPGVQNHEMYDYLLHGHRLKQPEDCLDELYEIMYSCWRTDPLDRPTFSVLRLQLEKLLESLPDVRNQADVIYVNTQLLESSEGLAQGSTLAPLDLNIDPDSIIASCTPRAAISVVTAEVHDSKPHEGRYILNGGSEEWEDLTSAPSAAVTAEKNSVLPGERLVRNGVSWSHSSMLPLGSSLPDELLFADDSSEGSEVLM
The assay can be described thus: Inhibition of Mer (unknown origin) at 0.5 uM relative to control.

In assay [10] the target is Hepatocyte growth factor receptor (Homo sapiens) (UniProt P08581). The assay can be described thus: Inhibition of Met (unknown origin) at 1 uM relative to control.
Sequence of Hepatocyte growth factor receptor (Homo sapiens) (P08581 whole entry): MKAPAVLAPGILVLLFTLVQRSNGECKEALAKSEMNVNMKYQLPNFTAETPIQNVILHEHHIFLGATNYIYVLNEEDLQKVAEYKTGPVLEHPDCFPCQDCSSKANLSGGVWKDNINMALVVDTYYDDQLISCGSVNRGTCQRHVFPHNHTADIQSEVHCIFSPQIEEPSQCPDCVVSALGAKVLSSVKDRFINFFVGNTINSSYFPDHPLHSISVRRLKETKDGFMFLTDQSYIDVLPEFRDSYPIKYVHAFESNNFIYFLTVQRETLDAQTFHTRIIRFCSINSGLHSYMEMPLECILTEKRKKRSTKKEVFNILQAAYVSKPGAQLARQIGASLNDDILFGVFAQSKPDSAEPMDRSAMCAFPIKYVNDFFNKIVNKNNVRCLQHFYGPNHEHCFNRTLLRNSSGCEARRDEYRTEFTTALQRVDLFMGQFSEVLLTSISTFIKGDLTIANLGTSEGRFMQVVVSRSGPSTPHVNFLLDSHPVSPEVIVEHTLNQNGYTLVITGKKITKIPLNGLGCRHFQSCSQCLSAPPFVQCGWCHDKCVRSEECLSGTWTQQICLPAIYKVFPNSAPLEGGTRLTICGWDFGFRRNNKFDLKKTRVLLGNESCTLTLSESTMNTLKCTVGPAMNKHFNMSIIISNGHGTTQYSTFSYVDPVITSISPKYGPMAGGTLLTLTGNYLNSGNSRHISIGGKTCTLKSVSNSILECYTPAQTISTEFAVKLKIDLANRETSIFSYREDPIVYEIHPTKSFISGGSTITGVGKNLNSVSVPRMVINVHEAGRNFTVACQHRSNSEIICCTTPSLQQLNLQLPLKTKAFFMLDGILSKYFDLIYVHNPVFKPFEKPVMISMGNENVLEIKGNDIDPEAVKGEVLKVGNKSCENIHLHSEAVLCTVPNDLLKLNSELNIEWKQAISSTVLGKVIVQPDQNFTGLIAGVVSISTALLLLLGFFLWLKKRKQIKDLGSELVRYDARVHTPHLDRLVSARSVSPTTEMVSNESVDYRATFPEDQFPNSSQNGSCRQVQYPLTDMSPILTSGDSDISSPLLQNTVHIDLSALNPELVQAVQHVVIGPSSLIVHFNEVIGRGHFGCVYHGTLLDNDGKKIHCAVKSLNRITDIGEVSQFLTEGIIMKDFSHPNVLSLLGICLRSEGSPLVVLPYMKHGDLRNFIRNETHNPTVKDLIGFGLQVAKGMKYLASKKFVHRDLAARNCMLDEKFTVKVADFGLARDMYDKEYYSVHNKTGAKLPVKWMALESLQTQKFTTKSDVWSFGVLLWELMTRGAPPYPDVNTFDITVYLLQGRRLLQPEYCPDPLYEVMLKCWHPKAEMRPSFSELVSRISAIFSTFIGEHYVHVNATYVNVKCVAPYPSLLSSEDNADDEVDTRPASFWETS
Assay [11] addresses Tyrosine-protein kinase ABL1 (Homo sapiens) (UniProt P00519). The assay can be described thus: Inhibition of non-phosphorylated form of Abl1 (unknown origin) at 75 uM relative to control.
For assay [12], the target named is Fibroblast growth factor receptor 3 (Homo sapiens) (UniProt P22607). The assay can be described thus: Inhibition of FGFR3 (unknown origin) at 0.5 uM relative to control.
For assay [13], the target named is T2, Tyrosine-protein kinase Mer (Homo sapiens). The assay can be described thus: Inhibition of Mer (unknown origin) at 1 uM relative to control.
For assay [14], the target named is Fibroblast growth factor receptor 3 (Homo sapiens) (UniProt P22607). The assay can be described thus: Inhibition of FGFR3 (unknown origin) at 1 uM relative to control.
For assay [15], the target named is Tyrosine-protein kinase ABL1 (Homo sapiens) (UniProt P00519). The assay can be described thus: Inhibition of non-phosphorylated form of Abl1 (unknown origin) at 0.5 uM relative to control.
The target is the same in assay [16]. The assay can be described thus: Inhibition of phosphorylated form of Abl1 (unknown origin) at 1 uM relative to control.
The target in assay [17] is Hepatocyte growth factor receptor (Homo sapiens) (UniProt P08581). The assay can be described thus: Inhibition of Met (unknown origin) at 0.5 uM relative to control.
The target of assay [18] is Tyrosine-protein kinase receptor UFO (Homo sapiens) (UniProt P30530). The assay can be described thus: Inhibition of Axl (unknown origin) at 0.5 uM relative to control.
Assay [19] has as its target Tyrosine-protein kinase ABL1 (Homo sapiens) (UniProt P00519). The assay can be described thus: Inhibition of phosphorylated form of Abl1 (unknown origin) at 0.5 uM relative to control.
For assay [20], the target named is T2, Tyrosine-protein kinase Mer (Homo sapiens). The assay can be described thus: Inhibition of Mer (unknown origin) at 75 uM relative to control.
The target of assay [21] is Hepatocyte growth factor receptor (Homo sapiens) (UniProt P08581). The assay can be described thus: Inhibition of Met (unknown origin) at 75 uM relative to control.

Sequence of Tyrosine-protein kinase ABL1 (Homo sapiens) (P00519 whole entry, the tested form may be a part): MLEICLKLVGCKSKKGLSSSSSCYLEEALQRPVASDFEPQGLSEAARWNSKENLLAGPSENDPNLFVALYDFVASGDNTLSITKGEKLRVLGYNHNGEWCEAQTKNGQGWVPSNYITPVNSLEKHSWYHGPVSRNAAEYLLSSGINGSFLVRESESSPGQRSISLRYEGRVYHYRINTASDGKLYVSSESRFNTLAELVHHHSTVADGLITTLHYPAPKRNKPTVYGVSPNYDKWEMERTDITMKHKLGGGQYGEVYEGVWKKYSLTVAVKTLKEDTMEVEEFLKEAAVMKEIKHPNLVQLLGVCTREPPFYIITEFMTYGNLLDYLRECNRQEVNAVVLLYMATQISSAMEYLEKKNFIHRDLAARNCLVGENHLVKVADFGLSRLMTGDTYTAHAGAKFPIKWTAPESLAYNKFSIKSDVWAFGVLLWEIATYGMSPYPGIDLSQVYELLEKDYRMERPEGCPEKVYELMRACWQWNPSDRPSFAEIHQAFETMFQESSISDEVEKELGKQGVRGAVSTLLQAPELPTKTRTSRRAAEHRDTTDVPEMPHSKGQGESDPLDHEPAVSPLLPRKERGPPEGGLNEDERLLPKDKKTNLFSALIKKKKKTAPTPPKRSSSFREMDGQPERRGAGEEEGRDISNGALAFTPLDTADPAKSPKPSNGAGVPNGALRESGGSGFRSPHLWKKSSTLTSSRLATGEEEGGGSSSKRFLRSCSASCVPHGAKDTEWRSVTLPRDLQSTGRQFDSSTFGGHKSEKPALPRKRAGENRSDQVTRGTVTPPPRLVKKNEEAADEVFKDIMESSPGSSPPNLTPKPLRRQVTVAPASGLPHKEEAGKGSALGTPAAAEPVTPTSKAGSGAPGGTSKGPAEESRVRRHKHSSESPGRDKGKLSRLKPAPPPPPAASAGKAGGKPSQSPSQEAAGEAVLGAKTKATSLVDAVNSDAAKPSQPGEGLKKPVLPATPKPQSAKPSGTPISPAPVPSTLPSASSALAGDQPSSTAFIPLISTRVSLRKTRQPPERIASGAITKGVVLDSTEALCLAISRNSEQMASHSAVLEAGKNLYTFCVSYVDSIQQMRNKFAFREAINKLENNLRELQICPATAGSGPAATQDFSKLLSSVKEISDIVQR

`O=C(Nc1ccc(Oc2cc(NCCN3CCOCC3)ncn2)c(F)c1)c1cccn(-c2ccc(F)cc2)c1=O`: the inhibition was found to be 13% in assay [1]; 63% in assay [2]; 99% in [3]; 100% in [4]; 12% in assay [5]; 50% in [6]. The inhibition came to 0% in [7]; 75% in [8]; 90% in assay [9]; 99% in assay [10]; 71% in assay [11]; 0% in assay [12]. In addition, the inhibition in assay [13] was 93%; in assay [14], 0%; in [15] it was 12%; in assay [16], 0%; in [17] it was 98%; in assay [18], 95%. Besides, the inhibition in assay [19] was 1%; in assay [20] it was 49%; in assay [21] it was 99%.
On to `CCOc1ccn(-c2ccc(F)cc2)c(=O)c1C(=O)Nc1ccc(Oc2ccnc(N)c2Cl)c(F)c1`, for which the inhibition in assay [2] worked out at 99%; in assay [3] it was 99%; in assay [4], 99%; in assay [5], 98%; in assay [6], 96%; in assay [7], 0%. Also, the inhibition in assay [8] is 92%; in assay [9], 98%; in assay [10] it was 95%; in assay [11], 100%; in assay [12], 0%; in assay [13], 98%. In addition, the inhibition in [14] is 0%; in assay [16] it was 35%; in [18], 99%; in assay [20], 95%.
Regarding `Nc1nccc(Oc2ccc(NC(=O)c3cccn(-c4ccc(F)cc4)c3=O)cc2F)n1`, the inhibition in assay [1] came out at 30%; in [2], 75%; in assay [3] it was 100%; in assay [4], 100%; in [5] it was 50%; in assay [6] it was 61%. In addition, the inhibition in assay [7] was 12%; in [9], 94%; in assay [10], 100%; in assay [11], 32%; in assay [12], 0%; in [13] it was 95%. The inhibition in [14] was 0%; in assay [15], 27%; in [16], 0%; in assay [17], 99%; in assay [18] it was 96%; in [19], 0%. Also, the inhibition in [21] amounted to 99%.
With `O=C(Nc1ccc(Oc2ncnc3[nH]cnc23)c(F)c1)c1cccn(-c2ccc(F)cc2)c1=O`, the inhibition amounted to 20% in assay [1]; 94% in assay [2]; 100% in [3]; 98% in [4]; 32% in [5]; 73% in assay [6]. Also, the inhibition in assay [7] is 16%; in assay [8], 100%; in assay [9], 77%; in assay [10] it was 98%; in assay [11], 66%; in [12], 0%. The inhibition in assay [13] is 93%; in assay [14] it was 0%; in [15], 17%; in [16] it was 0%; in [17] it was 93%; in assay [18], 98%. Further, the inhibition was 0% in [19] and 95% in [21].
